This is an account of results in ChEMBL document CHEMBL1811803, “Preparation of allosamidin and demethylallosamidin photoaffinity probes and analysis of allosamidin-binding proteins in asthmatic mice” (Bioorg Med Chem, 2011).

Data set [1] is described as follows: Inhibition of Trichoderma chitinase T1 using [4MU-(GlcNAc)3] as substrate.
Data set [2] in a line: Stability of the compound in 0.05 M HCl for 30 mins at room temperature. It is filed as physicochemical. The following applies: buffer, 0.5 h.
Data set [3] is described as follows: Stability of the compound in 0.05 M NaOH for 30 mins at room temperature. It is filed as physicochemical. To be noted: 0.5 h.
In data set [4] the target is Chitinase-like protein 3 (Mus musculus) (UniProt O35744). In words: Binding affinity to Ym1 in IL-13-induced asthmatic A/J mouse BAL fluid after 1 hrs by photoaffinity labeling study.
Chitinase-like protein 3 (Mus musculus), sequence (O35744 whole entry): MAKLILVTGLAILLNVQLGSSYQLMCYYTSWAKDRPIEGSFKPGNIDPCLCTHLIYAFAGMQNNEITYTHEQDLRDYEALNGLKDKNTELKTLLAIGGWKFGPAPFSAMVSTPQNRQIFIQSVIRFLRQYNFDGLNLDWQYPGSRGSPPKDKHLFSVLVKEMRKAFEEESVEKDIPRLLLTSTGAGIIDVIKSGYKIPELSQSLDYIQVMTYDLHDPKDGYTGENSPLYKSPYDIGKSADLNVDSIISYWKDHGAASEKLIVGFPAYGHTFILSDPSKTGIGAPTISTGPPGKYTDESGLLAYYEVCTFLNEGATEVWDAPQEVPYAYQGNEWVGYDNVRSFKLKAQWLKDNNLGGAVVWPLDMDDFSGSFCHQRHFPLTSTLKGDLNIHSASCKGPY
For data set [5] the target is unchanged. Description: Binding affinity to recombinant His-tagged mouse Ym1 expressed in Escherichia coli after 1 hrs by photoaffinity labeling study.
Data set [6] deals with Alpha-1-antiproteinase (Mus musculus). Description: Binding affinity to alpha-1 antitrypsin in IL-13-induced asthmatic A/J mouse BAL fluid after 1 hrs by photoaffinity labeling study.

The structures appear in SMILES notation. Active and inactive are the calls of the source. The calls are words filed in the database; no cut-off is given here.

Consider `CC(=O)N[C@H]1[C@H](O[C@H]2[C@H](O)[C@H]3N=C(N(C)C)O[C@H]3[C@@H]2CO)O[C@H](CO)[C@@H](O[C@@H]2O[C@H](CO)[C@@H](O)[C@@H](O)[C@H]2NC(=O)CCSSCCNC(=O)CCCCC2SCC3NC(=O)NC32)[C@H]1O` (some centres not stated), for which half-maximal inhibition in data set [1] (IC50) required 3.6 µM. For the same compound, the Stability result in data set [2] and in data set [3] was “Stable” throughout.

The compound `CNC1=N[C@@H]2[C@@H](O)[C@H](O[C@@H]3O[C@H](CO)[C@@H](O[C@@H]4O[C@H](CO)[C@@H](O)[C@@H](O)[C@H]4NC(C)=O)[C@@H](O)[C@H]3N)[C@@H](CO)[C@@H]2O1` registered a 50% inhibitory concentration (IC50) in data set [1] of 308 µM. Still for that read-out and setting: next, `CC(=O)N[C@H]1[C@H](O[C@H]2[C@@H](O)[C@@H](NC(=O)CCSSCCNC(=O)C(CCCCNC(=O)CCCCC3SCC4NC(=O)NC43)NC(=O)c3ccc(N=[NH+][NH-])cc3)[C@H](O[C@H]3[C@H](O)[C@H]4N=C(N(C)C)O[C@H]4[C@@H]3CO)O[C@@H]2CO)O[C@H](CO)[C@@H](O)[C@H]1O` (some centres not stated): 125 µM. In data set [1], `CNC1=N[C@@H]2[C@@H](O)[C@H](O[C@@H]3O[C@H](CO)[C@@H](O[C@@H]4O[C@H](CO)[C@@H](O)[C@@H](O)[C@H]4NC(C)=O)[C@@H](O)[C@H]3NC(C)=O)[C@@H](CO)[C@@H]2O1` [DEMETHYLALLOSAMIDIN] gave a half-maximal inhibitory concentration (IC50) of 10.3 µM. Same read-out and setting: for `CNC1=N[C@@H]2[C@@H](O)[C@H](O[C@@H]3O[C@H](CO)[C@@H](O[C@@H]4O[C@H](CO)[C@@H](O)[C@@H](O)[C@H]4NC(C)=O)[C@@H](O)[C@H]3NC(=O)CCSSCCNC(=O)C(CCCCNC(=O)CCCCC3SCC4NC(=O)NC43)NC(=O)c3ccc(N=[NH+][NH-])cc3)[C@@H](CO)[C@@H]2O1` (some centres not stated) the value was 155 µM; for `CNC1=N[C@@H]2[C@@H](O)[C@H](O[C@@H]3O[C@H](CO)[C@@H](O[C@@H]4O[C@H](CO)[C@@H](O)[C@@H](O)[C@H]4N)[C@@H](O)[C@H]3NC(C)=O)[C@@H](CO)[C@@H]2O1`, 82.9 µM; for `CC(=O)N[C@H]1[C@H](O[C@H]2[C@@H](O)[C@@H](NC(C)=O)[C@H](O[C@H]3[C@H](O)[C@H]4N=C(N(C)C)O[C@H]4[C@@H]3CO)O[C@@H]2CO)O[C@H](CO)[C@@H](O)[C@H]1O` [ALLOSAMIDIN], 5.4 µM. Still for that read-out and setting: next, `CNC1=N[C@@H]2[C@@H](O)[C@H](O[C@@H]3O[C@H](CO)[C@@H](O[C@@H]4O[C@H](CO)[C@@H](O)[C@@H](O)[C@H]4NC(C)=O)[C@@H](O)[C@H]3NC(=O)CCSSCCNC(=O)CCCCC3SCC4NC(=O)NC43)[C@@H](CO)[C@@H]2O1` (some centres not stated): 49.7 µM. Compound `CC(=O)N[C@H]1[C@H](O[C@H]2[C@@H](O)[C@@H](N)[C@H](O[C@H]3[C@H](O)[C@H]4N=C(N(C)C)O[C@H]4[C@@H]3CO)O[C@@H]2CO)O[C@H](CO)[C@@H](O)[C@H]1O` yielded a half-inhibitory concentration (IC50) in data set [1] of 69.3 µM. Compound `CNC1=N[C@@H]2[C@@H](O)[C@H](O[C@@H]3O[C@H](CO)[C@@H](O[C@@H]4O[C@H](CO)[C@@H](O)[C@@H](O)[C@H]4NC(=O)CCSSCCNC(=O)C(CCCCNC(=O)CCCCC4SCC5NC(=O)NC54)NC(=O)c4ccc(N=[NH+][NH-])cc4)[C@@H](O)[C@H]3NC(C)=O)[C@@H](CO)[C@@H]2O1` (some centres not stated) came in with an IC50 in data set [1] of 7.7 µM. Moreover, the outcome in data set [4], in data set [5] and in data set [6] was Active. `CC(=O)N[C@H]1[C@H](O[C@H]2[C@@H](O)[C@@H](NC(=O)CCSSCCNC(=O)CCCCC3SCC4NC(=O)NC43)[C@H](O[C@H]3[C@H](O)[C@H]4N=C(N(C)C)O[C@H]4[C@@H]3CO)O[C@@H]2CO)O[C@H](CO)[C@@H](O)[C@H]1O` (some centres not stated) yielded an IC50 in data set [1] of 50.3 µM. In data set [1], `CC(=O)N[C@H]1[C@H](O[C@H]2[C@H](O)[C@H]3N=C(N(C)C)O[C@H]3[C@@H]2CO)O[C@H](CO)[C@@H](O[C@@H]2O[C@H](CO)[C@@H](O)[C@@H](O)[C@H]2NC(=O)CCSSCCNC(=O)C(CCCCNC(=O)CCCCC2SCC3NC(=O)NC32)NC(=O)c2ccc(N=[NH+][NH-])cc2)[C@H]1O` (some centres not stated) came in with an IC50 of 10.7 µM. Also, the result in data set [4], in data set [5] and in data set [6] was Active. `CNC1=N[C@@H]2[C@@H](O)[C@H](O[C@@H]3O[C@H](CO)[C@@H](O[C@@H]4O[C@H](CO)[C@@H](O)[C@@H](O)[C@H]4NC(=O)CCSSCCNC(=O)CCCCC4SCC5NC(=O)NC54)[C@@H](O)[C@H]3NC(C)=O)[C@@H](CO)[C@@H]2O1` (some centres not stated): the half-maximal inhibitory concentration (IC50) in data set [1] amounted to 7.9 µM. The compound `CC(=O)N[C@H]1[C@H](O[C@H]2[C@H](O)[C@H]3N=C(N(C)C)O[C@H]3[C@@H]2CO)O[C@H](CO)[C@@H](O[C@@H]2O[C@H](CO)[C@@H](O)[C@@H](O)[C@H]2N)[C@H]1O` came in with an IC50 in data set [1] of 34.3 µM.
